Reference: ChEMBL document CHEMBL1641570, “New hydroxystilbenoid derivatives endowed with neuroprotective activity and devoid of interference with estrogen and aryl hydrocarbon receptor-mediated transcription” (Bioorg Med Chem, 2011)
pEC50: −log10 of the molar value.

Legend:
[1] = Antagonist activity at estrogen receptor in human Ishikawa cells assessed as inhibition of estradiol-induced alkaline phosphatase expression at 1 uM after 72 hrs relative to ICI182780; format: cell-based
[2] = target: T1, Estrogen receptor beta (Homo sapiens, UniProt Q92731); test: Antagonist activity at human ERbeta receptor expressed in human HEK293 cells co-expressing ERE assessed as inhibition of estradiol-induced of luciferase gene expression at 1 uM after 18 hrs relative to ICI182780; format: cell-based; details: hek293, 18 h
T1 sequence (Q92731 whole entry): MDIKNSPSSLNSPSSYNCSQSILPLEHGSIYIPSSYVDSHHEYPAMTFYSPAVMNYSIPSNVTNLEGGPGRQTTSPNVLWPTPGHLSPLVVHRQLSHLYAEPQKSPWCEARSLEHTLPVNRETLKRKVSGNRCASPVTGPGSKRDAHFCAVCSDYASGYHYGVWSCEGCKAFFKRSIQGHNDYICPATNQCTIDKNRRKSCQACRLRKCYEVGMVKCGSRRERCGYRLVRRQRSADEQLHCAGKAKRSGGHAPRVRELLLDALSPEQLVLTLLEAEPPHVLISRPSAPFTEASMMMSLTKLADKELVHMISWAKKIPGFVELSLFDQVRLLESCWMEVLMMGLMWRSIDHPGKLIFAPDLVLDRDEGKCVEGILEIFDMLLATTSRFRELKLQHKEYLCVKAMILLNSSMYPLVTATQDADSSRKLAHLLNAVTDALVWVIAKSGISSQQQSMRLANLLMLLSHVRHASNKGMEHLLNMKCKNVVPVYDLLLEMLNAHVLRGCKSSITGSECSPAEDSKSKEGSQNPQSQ

[3] = target: T2, Estrogen receptor (Homo sapiens, UniProt P03372); test: Antagonist activity at human ERalpha receptor expressed in human MCF7:D5L cells co-expressing ERE assessed as inhibition of estradiol-induced of luciferase gene expression at 1 uM after 18 hrs relative to ICI182780; format: cell-based
T2 sequence (P03372 whole entry): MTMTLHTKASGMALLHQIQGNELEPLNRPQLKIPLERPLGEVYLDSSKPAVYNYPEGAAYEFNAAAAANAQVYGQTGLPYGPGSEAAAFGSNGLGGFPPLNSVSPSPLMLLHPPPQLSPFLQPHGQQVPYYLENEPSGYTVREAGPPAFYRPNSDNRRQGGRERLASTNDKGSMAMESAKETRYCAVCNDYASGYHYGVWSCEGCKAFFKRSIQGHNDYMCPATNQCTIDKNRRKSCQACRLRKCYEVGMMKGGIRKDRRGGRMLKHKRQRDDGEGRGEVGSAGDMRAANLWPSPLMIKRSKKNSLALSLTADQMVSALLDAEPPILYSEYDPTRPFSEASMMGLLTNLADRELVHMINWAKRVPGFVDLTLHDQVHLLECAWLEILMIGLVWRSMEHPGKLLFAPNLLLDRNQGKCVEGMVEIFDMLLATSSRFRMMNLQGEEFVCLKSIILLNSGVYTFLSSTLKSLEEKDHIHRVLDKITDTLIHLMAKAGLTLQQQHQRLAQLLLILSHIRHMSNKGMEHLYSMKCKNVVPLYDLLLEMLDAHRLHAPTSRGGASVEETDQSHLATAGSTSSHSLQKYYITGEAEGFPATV

[4] = target: T1, Estrogen receptor beta; test: Agonist activity at human ERbeta receptor expressed in human HEK293 cells co-expressing ERE assessed as increase of estradiol-induced luciferase gene expression at 1 uM after 18 hrs relative to estradiol; format: cell-based; details: for Activity: hek293, 18 h, 1 µM; for activity at 18 h, 1 µM: read-out: Activity
[5] = target: Aryl hydrocarbon receptor (Mus musculus) (UniProt P30561); test: Activity at AhR expressed in mouse H1L1.1c2 cells co-expressing XRE assessed as increase of benzo[b]fluoranthene-induced luciferase gene expression at 1 uM after 72 hrs
Chain of Aryl hydrocarbon receptor (Mus musculus) (P30561 whole entry, looked up): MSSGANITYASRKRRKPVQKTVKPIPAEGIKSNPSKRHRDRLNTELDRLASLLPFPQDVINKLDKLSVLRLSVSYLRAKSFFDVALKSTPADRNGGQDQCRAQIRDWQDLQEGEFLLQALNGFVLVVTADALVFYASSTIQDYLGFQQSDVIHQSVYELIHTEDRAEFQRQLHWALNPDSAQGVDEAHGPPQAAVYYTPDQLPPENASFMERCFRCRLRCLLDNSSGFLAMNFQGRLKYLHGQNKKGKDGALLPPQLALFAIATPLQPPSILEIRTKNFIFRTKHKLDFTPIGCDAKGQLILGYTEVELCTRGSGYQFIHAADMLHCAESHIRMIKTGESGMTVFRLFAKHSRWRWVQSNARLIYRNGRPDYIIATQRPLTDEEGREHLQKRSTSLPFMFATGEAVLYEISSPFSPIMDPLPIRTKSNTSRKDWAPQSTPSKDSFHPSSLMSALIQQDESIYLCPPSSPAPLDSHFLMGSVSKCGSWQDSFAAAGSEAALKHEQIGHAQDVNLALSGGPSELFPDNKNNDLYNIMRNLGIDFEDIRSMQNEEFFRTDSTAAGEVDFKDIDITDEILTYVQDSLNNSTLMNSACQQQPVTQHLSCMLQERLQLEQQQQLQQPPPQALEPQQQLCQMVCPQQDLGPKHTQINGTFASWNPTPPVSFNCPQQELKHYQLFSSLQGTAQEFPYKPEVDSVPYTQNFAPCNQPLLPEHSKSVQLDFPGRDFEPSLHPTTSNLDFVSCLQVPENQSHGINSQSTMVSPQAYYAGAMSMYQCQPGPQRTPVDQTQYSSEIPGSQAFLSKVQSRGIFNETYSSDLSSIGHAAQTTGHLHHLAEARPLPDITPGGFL

[6] = Cytotoxicity against mouse HT22 cells assessed as cell viability at 1 uM after 3 days by LDH release assay relative to control; format: cell-based, HT-22; details: read-out: Activity
[7] = target: T3, estrogen receptor alpha (Homo sapiens, UniProt P03372); test: (§1) Partial agonist activity at human ERalpha receptor expressed in human MCF7:D5L cells co-expressing ERE assessed as increase of estradiol-induced luciferase gene expression at 1 uM after 18 hrs relative to estradiol; format: cell-based; details: read-out: Activity
T3 sequence (P03372 whole entry): T2 sequence (P03372 whole entry)

[8] = test system: HT-22; test: Neuroprotective activity in mouse HT22 cells assessed as protection against glutamate-induced oxytosis after 24 hrs by MTT assay; format: functional, cell-based; details: HT-22, 24 h
[9] = test system: estrogen receptor; test: (§2) Agonist activity at estrogen receptor in human Ishikawa cells assessed as increase of estradiol-induced alkaline phosphatase expression at 1 uM after 72 hrs relative to estradiol; format: cell-based; details: Ishikawa cells, read-out: Activity
[10] = test system: Ishikawa; test: Cytotoxicity against human Ishikawa cells by LDH release assay; format: cell-based
[11] = test system: HT-22; test: Neuroprotective activity in mouse HT22 cells assessed as protection against glutamate-induced oxytosis after 24 hrs by MTT assay relative to resveratrol; format: functional
[12] = target: Aryl hydrocarbon receptor (Mus musculus) (UniProt P30561); test: Activity at AhR expressed in mouse H1L1.1c2 cells co-expressing XRE assessed as induction luciferase gene expression at 1 uM after 72 hrs relative to benzo[b]fluoranthene
[13] = target: T2, Estrogen receptor; test: as §1; format: cell-based; details: 18 h, 1 µM
[14] = as §2; format: cell-based; details: ishikawa, 72 h, 1 µM
[15] = test system: MCF7; test: Antiproliferative activity against human stradiol-stimulated MCF7 cells at 1 uM after 96 hrs by MTT assay; format: cell-based; details: mcf7, 96 h
[16] = test system: Ishikawa; test: Cytotoxicity against human Ishikawa cells at 1 uM by LDH release assay; format: cell-based
[17] = target: Aryl hydrocarbon receptor (Mus musculus) (UniProt P30561); test: Activity at AhR expressed in mouse H1L1.1c2 cells co-expressing XRE assessed as induction luciferase gene expression at 10 nM after 72 hrs

Row | Activity [1] | Activity [2] | Activity [3] | Activity [4] | Activity [5] | activity at 18 h, 1 µM [7] | activity at 72 h, 1 µM [9] | Ratio [12] | Activity [13] | Activity [14] | activity at 18 h, 1 µM [4] | Compound | percent cytotoxicity (LDH release relative to control) at 72 h, 1 µM [6] | pEC50 [8] | Activity [10] | Ratio EC50 [11] | Activity [15] | Activity [16] | Activity [17]
1 | Not Active | Not Active | Not Active | Not Active | 1.7% | 65% | 38% | – | – | – | – | CCC(CC)c1cc(/C=C/c2cc(O)cc(O)c2)ccc1O | -1% | 6.36 | Non-toxic | 11 | – | – | –
2 | Not Active | Not Active | Not Active | Not Active | 3% | – | – | 1.9 | Not Active | Not Active | – | CCC(CC)c1cc(/C=C/c2cc(O)cc(O)c2)cc(C(CC)CC)c1O | -6.7% | 7.52 | Non-toxic | 156 | Non-toxic | – | –
3 | Not Active | Not Active | Not Active | Not Active | 1.5% | – | – | – | Not Active | Not Active | – | CC(C)(C)c1cc(/C=C/c2cc(O)cc(O)c2)ccc1O | -6% | 6.32 | Non-toxic | 9.6 | – | – | –
4 | Not Active | Not Active | Not Active | Not Active | 1.5% | – | – | – | Not Active | Not Active | – | CC(C)(C)c1cc(/C=C/c2cc(O)cc(O)c2)cc(C(C)(C)C)c1O | -6.7% | 7.35 | Non-toxic | 104 | Non-toxic | – | –
5 | Not Active | Not Active | Not Active | Not Active | 1.7% | 37% | 21% | – | – | – | – | CCC(CC)c1cc(/C=C/C=C/c2cc(O)cc(O)c2)ccc1O | -5% | 7.10 | Non-toxic | 59 | – | – | –
6 | Not Active | Not Active | Not Active | Not Active | 2.2% | – | – | – | Not Active | Not Active | – | CCC(CC)c1cc(/C=C/C=C/c2cc(O)cc(O)c2)cc(C(CC)CC)c1O | -6% | 7.92 | Non-toxic | 389 | Non-toxic | – | –
7 | Not Active | Not Active | Not Active | – | 1.6% | 34% | – | – | – | Not Active | 18% | CC(C)(C)c1cc(/C=C/C=C/c2cc(O)cc(O)c2)ccc1O | -8.7% | 7.04 | Non-toxic | 51 | – | – | –
8 | Not Active | Not Active | Not Active | Not Active | 1.6% | – | – | – | Not Active | Not Active | – | CC(C)(C)c1cc(/C=C/C=C/c2cc(O)cc(O)c2)cc(C(C)(C)C)c1O | -5.3% | 6.92 | Non-toxic | 39 | – | – | –
9 | – | – | Not Active | – | 1.7% | – | – | – | Not Active | – | 66% | Oc1ccc(/C=C/C=C/c2cc(O)cc(O)c2)cc1 | 8% | 5.48 | – | 1.4 | – | Toxic | –
10 | Not Active | Not Active | Not Active | – | 1.5% | 49% | 25% | – | – | – | 19% | CC(C)(C)c1cc(/C=C/c2ccc(O)cc2)ccc1O | -5.3% | 5.97 | Non-toxic | 4.4 | – | – | –
11 | Not Active | Not Active | Not Active | Not Active | 1.4% | – | – | – | Not Active | Not Active | – | CC(C)(C)c1cc(/C=C/c2cc(C(C)(C)C)c(O)c(C(C)(C)C)c2)cc(C(C)(C)C)c1O | 1.3% | 6.40 | Non-toxic | 12 | – | – | –
12 | – | – | – | – | – | – | – | – | – | – | – | COc1c(C(C)(C)C)cc(/C=C/c2cc(O)cc(O)c2)cc1C(C)(C)C | – | 6.21 | – | 7.5 | – | – | –
13 | – | – | – | – | – | – | – | – | – | – | – | COc1c(C(C)(C)C)cc(/C=C/C=C/c2cc(O)cc(O)c2)cc1C(C)(C)C | – | 6.39 | – | 11 | – | – | –
14 | – | – | – | – | – | – | – | – | – | – | – | COc1cc(O)cc(/C=C/c2cc(C(C)(C)C)c(O)c(C(C)(C)C)c2)c1 | – | 6.59 | – | 18 | – | – | –
15 | – | – | – | – | – | – | – | – | – | – | – | COc1c(C(C)(C)C)cc(/C=C/c2cc(C(C)(C)C)c(O)c(C(C)(C)C)c2)cc1C(C)(C)C | – | < 5.00 | – | <1 | – | – | –
16 | – | – | – | – | – | – | – | – | – | – | – | c1ccc2c(c1)-c1cccc3c1c-2cc1ccccc13 [BENZO[B]FLUORANTHENE] | – | – | – | – | – | – | 13.1%
17 | Not Active | – | – | – | 1.2% | – | – | – | Not Active | Not Active | – | Oc1ccc(/C=C/c2cc(O)cc(O)c2)cc1 [RESVERATROL] | 4% | 5.33 | Non-toxic | – | – | – | –
